Laboratory results from PubChem BioAssay AID1963972 (Molecular Pharmacology Branch, DTP, NCI, 2024).

Test system: 945468-187-T-J2-PDC spheroids viability
Assay: Anticancer human tumor 945468-187-T-J2-PDC patient-derived rectal carcinoma cell line growth inhibition [PI3K]
Conditions: spheroids with HUVEC and MSC; for IC50: curve of first compound; for viability, T/C: stronger effect = lower value
In short: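 Stroma-containing spheroids: tumor line, pooled-donor HUVEC, hMSC. Treatments: targeted agents with PI3K inhibitors. Dosing: clinically relevant, half-log spacing, 10 microM ceiling without known Cmax. Read-out: cell viability.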

[1] = second compound 0.0316 µM, first compound 0.0316 µM
[2] = second compound 0.0316 µM, first compound 0.1 µM
[3] = second compound 0.0316 µM, first compound 0.316 µM
[4] = second compound 0.0316 µM, first compound 1 µM
[5] = second compound 0.1 µM, first compound 0.0316 µM
[6] = second compound 0.1 µM, first compound 0.1 µM
[7] = second compound 0.1 µM, first compound 0.316 µM
[8] = second compound 0.1 µM, first compound 1 µM
[9] = second compound 0.316 µM, first compound 0.0316 µM
[10] = second compound 0.316 µM, first compound 0.1 µM
[11] = second compound 0.316 µM, first compound 0.316 µM
[12] = second compound 0.316 µM, first compound 1 µM
[13] = second compound 1 µM, first compound 0.0316 µM
[14] = second compound 1 µM, first compound 0.1 µM
[15] = second compound 1 µM, first compound 0.316 µM
[16] = second compound 1 µM, first compound 1 µM
[17] = second compound 3.16 µM, first compound 0.0316 µM
[18] = second compound 3.16 µM, first compound 0.1 µM
[19] = second compound 3.16 µM, first compound 0.316 µM
[20] = second compound 3.16 µM, first compound 1 µM
[21] = second compound 10 µM, first compound 0.0316 µM
[22] = second compound 10 µM, first compound 0.1 µM
[23] = second compound 10 µM, first compound 0.316 µM
[24] = second compound 10 µM, first compound 1 µM
[25] = second compound 0.0316 µM, first compound 3.16 µM
[26] = second compound 0.0316 µM, first compound 10 µM
[27] = second compound 0.1 µM, first compound 3.16 µM
[28] = second compound 0.1 µM, first compound 10 µM
[29] = second compound 0.316 µM, first compound 3.16 µM
[30] = second compound 0.316 µM, first compound 10 µM
[31] = second compound 1 µM, first compound 3.16 µM
[32] = second compound 1 µM, first compound 10 µM
[33] = second compound 3.16 µM, first compound 3.16 µM
[34] = second compound 3.16 µM, first compound 10 µM
[35] = second compound 10 µM, first compound 3.16 µM
[36] = second compound 10 µM, first compound 10 µM
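Note: spheroids exposed to compounds for seven days before reading.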

SMILES: CCN1CCN(Cc2ccc(Nc3ncc(F)c(-c4cc(F)c5nc(C)n(C(C)C)c5c4)n3)nc2)CC1 + CC(Nc1ncnc2nc[nH]c12)c1cc2cccc(Cl)c2c(=O)n1-c1ccccc1
- IC50 (second compound 0.0316 µM): > 1 µM
- IC50 (second compound 0.1 µM): > 1 µM
- IC50 (second compound 0.316 µM): > 1 µM
- IC50 (second compound 1 µM): > 1 µM
- IC50 (second compound 3.16 µM): > 1 µM
- IC50 (second compound 10 µM): > 1 µM
- viability, T/C (second compound 0.0316 µM, first compound 0.00316 µM): 91.3%
- viability, T/C (second compound 0.0316 µM, first compound 0.01 µM): 103%
- viability, T/C [1]: 98.8%
- viability, T/C [2]: 92.9%
- viability, T/C [3]: 100%
- viability, T/C [4]: 79.7%
- viability, T/C (second compound 0.1 µM, first compound 0.00316 µM): 93.5%
- viability, T/C (second compound 0.1 µM, first compound 0.01 µM): 122%
- viability, T/C [5]: 118%
- viability, T/C [6]: 89.5%
- viability, T/C [7]: 84.2%
- viability, T/C [8]: 71.6%
- viability, T/C (second compound 0.316 µM, first compound 0.00316 µM): 83.9%
- viability, T/C (second compound 0.316 µM, first compound 0.01 µM): 76.9%
- viability, T/C [9]: 86%
- viability, T/C [10]: 84.1%
- viability, T/C [11]: 95.8%
- viability, T/C [12]: 67%
- viability, T/C (second compound 1 µM, first compound 0.00316 µM): 120%
- viability, T/C (second compound 1 µM, first compound 0.01 µM): 98%
- viability, T/C [13]: 85.4%
- viability, T/C [14]: 87.8%
- viability, T/C [15]: 88.7%
- viability, T/C [16]: 74.2%
- viability, T/C (second compound 3.16 µM, first compound 0.00316 µM): 90.8%
- viability, T/C (second compound 3.16 µM, first compound 0.01 µM): 98.8%
- viability, T/C [17]: 94.2%
- viability, T/C [18]: 87.2%
- viability, T/C [19]: 77.8%
- viability, T/C [20]: 59.5%
- viability, T/C (second compound 10 µM, first compound 0.00316 µM): 81.5%
- viability, T/C (second compound 10 µM, first compound 0.01 µM): 76.4%
- viability, T/C [21]: 104%
- viability, T/C [22]: 98.8%
- viability, T/C [23]: 95%
- viability, T/C [24]: 53.6%

SMILES: Cn1ncc(Cl)c1-c1cc(C(=O)NC(CN)Cc2cccc(F)c2)sc1Cl (stereo unspecified) + CC(Nc1ncnc2nc[nH]c12)c1cc2cccc(Cl)c2c(=O)n1-c1ccccc1
- IC50 (second compound 0.0316 µM): > 10 µM
- IC50 (second compound 0.1 µM): > 10 µM
- IC50 (second compound 0.316 µM): > 10 µM
- IC50 (second compound 1 µM): > 10 µM
- IC50 (second compound 3.16 µM): > 10 µM
- IC50 (second compound 10 µM): > 10 µM
- viability, T/C [1]: 97.5%
- viability, T/C [2]: 89.3%
- viability, T/C [3]: 96.3%
- viability, T/C [4]: 91.5%
- viability, T/C [25]: 83.9%
- viability, T/C [26]: 59.2%
- viability, T/C [5]: 91.1%
- viability, T/C [6]: 93.3%
- viability, T/C [7]: 129%
- viability, T/C [8]: 91.7%
- viability, T/C [27]: 93.2%
- viability, T/C [28]: 59.8%
- viability, T/C [9]: 90.6%
- viability, T/C [10]: 122%
- viability, T/C [11]: 104%
- viability, T/C [12]: 105%
- viability, T/C [29]: 84.2%
- viability, T/C [30]: 65.5%
- viability, T/C [13]: 99%
- viability, T/C [14]: 115%
- viability, T/C [15]: 106%
- viability, T/C [16]: 98.1%
- viability, T/C [31]: 77.8%
- viability, T/C [32]: 73.3%
- viability, T/C [17]: 83.3%
- viability, T/C [18]: 103%
- viability, T/C [19]: 92.5%
- viability, T/C [20]: 71%
- viability, T/C [33]: 81.8%
- viability, T/C [34]: 61%
- viability, T/C [21]: 99.6%
- viability, T/C [22]: 99.6%
- viability, T/C [23]: 90.6%
- viability, T/C [24]: 94.2%
- viability, T/C [35]: 74.4%
- viability, T/C [36]: 70.1%

SMILES: Cn1nccc1Nc1nccc(-c2ccn(C(CO)c3ccc(Cl)c(F)c3)c(=O)c2)n1 (stereo unspecified) + CC(Nc1ncnc2nc[nH]c12)c1cc2cccc(Cl)c2c(=O)n1-c1ccccc1
- IC50 (second compound 0.0316 µM): > 10 µM
- IC50 (second compound 0.1 µM): > 10 µM
- IC50 (second compound 0.316 µM): > 10 µM
- IC50 (second compound 1 µM): > 10 µM
- IC50 (second compound 3.16 µM): > 10 µM
- IC50 (second compound 10 µM): > 10 µM
- viability, T/C [1]: 107%
- viability, T/C [2]: 91.4%
- viability, T/C [3]: 92%
- viability, T/C [4]: 115%
- viability, T/C [25]: 101%
- viability, T/C [26]: 78.5%
- viability, T/C [5]: 76.1%
- viability, T/C [6]: 86.5%
- viability, T/C [7]: 102%
- viability, T/C [8]: 120%
- viability, T/C [27]: 101%
- viability, T/C [28]: 72.7%
- viability, T/C [9]: 95.2%
- viability, T/C [10]: 85.6%
- viability, T/C [11]: 83.1%
- viability, T/C [12]: 98.7%
- viability, T/C [29]: 84.2%
- viability, T/C [30]: 71.1%
- viability, T/C [13]: 99.3%
- viability, T/C [14]: 100%
- viability, T/C [15]: 89.4%
- viability, T/C [16]: 103%
- viability, T/C [31]: 96.2%
- viability, T/C [32]: 75.7%
- viability, T/C [17]: 88.2%
- viability, T/C [18]: 80.8%
- viability, T/C [19]: 83.6%
- viability, T/C [20]: 125%
- viability, T/C [33]: 140%
- viability, T/C [34]: 68.4%
- viability, T/C [21]: 135%
- viability, T/C [22]: 115%
- viability, T/C [23]: 109%
- viability, T/C [24]: 110%
- viability, T/C [35]: 91.9%
- viability, T/C [36]: 70.5%
